The record followed here is patent US8541377B2, “Optimized dengue virus entry inhibitory peptide (DN81)” (Florida Gulf Coast University, priority 2007, dated 2013).

The data set relates to LLCMK-2 cells. Particulars: confluent LLCMK-2 monolayers; concentration ranges that showed viral inhibition; vs medium only controls, p>0.05; FIG. 4. The procedure:
The cytotoxicity of the chemistries was measured by monitoring mitochondrial reductase activity using the TACS™ MTT cell proliferation assay (R&D Systems, Inc., Minneapolis, Minn.) according to the manufacturer's instructions. Dilutions of chemistries in serum-free DMEM were added to confluent monolayers of LLCMK-2 cells in 96-well plates for 1 h at 37° C., similar to the focus forming inhibition assays, and subsequently incubated at 37° C. with 5% (v/v) CO2 for 24 h. Absorbance at 560 nm was measured using a Tecan GeniosPro plate reader (Tecan US, Durham, N.C.).

Structures are written as SMILES. Residues, ends and D or L forms follow the SMILES beside them.

Turning to `CSCC[C@H](NC(=O)[C@H](Cc1c[nH]c2ccccc12)NC(=O)[C@@H](N)CCCNC(=N)N)C(=O)N[C@H](C(=O)N[C@@H](Cc1c[nH]c2ccccc12)C(=O)N[C@@H](CCCNC(=N)N)C(=O)N[C@@H](Cc1c[nH]cn1)C(=O)N[C@@H](Cc1c[nH]c2ccccc12)C(=O)N[C@@H](Cc1ccccc1)C(=O)N[C@@H](Cc1c[nH]cn1)C(=O)N[C@@H](CCCNC(=N)N)C(=O)N[C@@H](CC(C)C)C(=O)N[C@@H](CCCNC(=N)N)C(=O)N[C@@H](CC(C)C)C(=O)N1CCC[C@H]1C(=O)N[C@@H](Cc1ccc(O)cc1)C(=O)N[C@@H](CC(N)=O)C(=O)N1CCC[C@H]1C(=O)NCC(=O)N[C@@H](CCCCN)C(=O)N[C@@H](CC(N)=O)C(=O)N[C@@H](CCCCN)C(=O)N[C@@H](CCC(N)=O)C(=O)N[C@@H](CC(N)=O)C(=O)N[C@@H](CCC(N)=O)C(=O)N[C@@H](CCC(N)=O)C(=O)N[C@@H](Cc1c[nH]c2ccccc12)C(=O)N1CCC[C@H]1C(=O)O)C(C)C` [DN81] (H-RWMVWRHWFHRLRLPYNPGKNKQNQQWP-OH), the “toxicity (mitochondrial reductase activity of target cells)” value was “not due to toxicity”.
